Results published in patent US4192871A, “Chemical compounds” (Glaxo Laboratories Limited, priority 1976, dated 1980).
Where a name gives a salt, the structure may show the parent alone.

How the values were obtained:
[1] = anaesthetic activity tests (intravenous administration); assay type: in vivo; settings: compound and salts
Excerpt: In the tests we have carried out, the compounds of the invention have been shown generally to be good anaesthetics, usually giving instantaneous induction of anaesthesia when administered intravenously. […] The compounds of the invention are of use for inducing anaesthesia which is to be maintained for example by an inhalation anaesthetic, such as ether, halothane, nitrous oxide or trichloroethylene. The compounds may also be capable of maintaining anaesthesia to a sufficient degree to enable surgical operations to be conducted without the aid of an inhalation anaesthetic, the anaesthesia being maintained if necessary by repeated or continuous administration. The compounds may have other desirable central nervous system depressant activities, for example they may be of use as sedatives.

[2] = dissolution of the 11β-aminoester salts in aqueous acid (Table 5 and Examples 101, 225-229); assay type: physicochemical; settings: for concentration of aqueous solution of the citrate: citric acid monohydrate in water, filtered solution
Summary of the method: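 11β-Aminoester free base combined with 1 molar part of acid (citric acid as monohydrate) in water, with extra acid or prior ethanol co-evaporation in some methods. Solution made up to set weight, undissolved base collected and weighed to calculate dissolved amount. Solution pH measured.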

pH of the salt solutions = assay type: physicochemical
Summary of the method: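 Aminoester free base mixed with 1 molar part acid in water, stirred or shaken, with extra acid or ethanol evaporation in some methods, then made up with water to set weight. Undissolved base collected and weighed to calculate dissolved base; solution membrane-filtered and pH measured.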

[3] = method C: ethanol evaporated, residue in water, undissolved material weighed, WT. of solution Ex. 118: 10, 120: 10.4, 148: 9.54, 152: 5.6, 154: 9.1, 155: 8.77, 156: 9.06, 157: 9.5, 158: 9.38, 159: 9.17, 179: 9.65, 180: 11.7, 182: 4.9, 202: 12.05, 213: 12, 214: 11.5, 215: 11.1, 216: 11.6, 217: 12.1 g
[4] = aqueous solution of the salt, Table 5
[5] = method A: clear solution, 1 molar part acid, made up with water to WT. of solution 10 g, except Ex. 121 and 150: 12, 123: 12.3, 124: 7.5, 129: 10.3, 135 and 139: 8.95, 164: 10.35, 170: 10.4, 181: 10.04, 187: 9.5, 210: 10.2, 221: 15 g
[6] = method B: further acid added, undissolved material weighed, WT. of solution 10 g, except Ex. 130 and 141: 9.2, 142: 9.23, 143, 144, 189 and 199: 9.8, 149: 10.6, 153: 7.9, 162 and 188: 9.5, 163: 68, 166: 10.4, 168: 10.7, 169: 10.9, 183: 8.05, 184 and 201: 9.83, 185: 7.1, 186: 9.3, 192: 10.07, 193: 6.4, 195: 6.8, 196: 7, 197: 7.2, 200: 10.1, 206: 15 g
[7] = method D: 1 molar part acid, undissolved material weighed, WT. of solution 10 g, except Ex. 136: 8.95, 140: 9.52, 165 and 167: 10.1, 190 and 198: 9.8, 191: 8.9, 194: 6.6, 204: 10.09, 219: 10.6 g
[8] = method E: as C with further acid, WT. of solution Ex. 160: 6.12, 161: 7.8, 203: 12.7, 212: 12.125, 220: 10 g
[9] = aqueous solution of the citrate, filtered, 9.5-10 mg/ml

SMILES: CCN(CC(=O)O[C@H]1C[C@]2(C)[C@@H](C(C)=O)CC[C@H]2[C@@H]2CC[C@H]3C[C@H](O)CC[C@]3(C)[C@H]21)C(C)CC(C)C (stereo partly drawn) [compound 23, 11β-N-1',3'-dimethylbutyl-N-ethylaminoacetoxy-3α-hydroxy-5α-pregnan-20-one]
- activity shown in our tests (preference grade) [1]: particularly preferred on account of the activity shown in our tests

SMILES: CCCCN(C)CC(=O)O[C@H]1C[C@]2(C)[C@@H](C(C)=O)CC[C@H]2[C@@H]2CC[C@H]3C[C@H](O)CC[C@]3(C)[C@H]21 [Example 111, 11β-(N-Butyl-N-methylaminoacetoxy)-3α-hydroxy-5α-pregnan-20-one]
- activity shown in our tests (preference grade) ([1]; listed as Compound No. 10): especially preferred

SMILES: CC(=O)[C@H]1CC[C@H]2[C@@H]3CC[C@H]4C[C@H](O)CC[C@]4(C)[C@H]3[C@@H](OC(=O)CNCC(C)(C)C)C[C@]12C [Example 34, 11β-N-2',2'-dimethylpropylaminoacetoxy-3α-hydroxy-5α-pregnan-20-one]
- activity shown in our tests (preference grade) [1]: particularly preferred on account of the activity shown in our tests

SMILES: CCO[C@H]1C[C@@]2(C)[C@@H](CC[C@@H]3[C@@H]2[C@@H](OC(=O)CNC(C)CC(C)C)C[C@]2(C)[C@@H](C(C)=O)CC[C@@H]32)C[C@@H]1O (stereo partly drawn) [compound 29, 2β-ethoxy-3α-hydroxy-11β-N-1',3'-dimethylbutylaminoacetoxy-5α-pregnan-20-one]
- activity shown in our tests (preference grade) [1]: particularly preferred on account of the activity shown in our tests

SMILES: CCCCN(CC)CC(=O)O[C@H]1C[C@]2(C)[C@@H](C(C)=O)CC[C@H]2[C@@H]2CC[C@H]3C[C@H](O)CC[C@]3(C)[C@H]21 [Example 115, 11β-(N-Butyl-N-ethylaminoacetoxy)-3α-hydroxy-5α-pregnan-20-one]
- activity shown in our tests (preference grade) ([1]; listed as Compound No. 12): especially preferred

SMILES: CCO[C@H]1C[C@@]2(C)[C@@H](CC[C@@H]3[C@@H]2[C@@H](OC(=O)CN(CC)CC)C[C@]2(C)[C@@H](C(C)=O)CC[C@@H]32)C[C@@H]1O [Example 101, 2β-Ethoxy-11β-diethylaminoacetoxy-3α-hydroxy-5α-pregnan-20-one]
- activity shown in our tests (preference grade) ([1]; listed as Compound No. 6): especially preferred

SMILES: CCCN(CCC)CC(=O)O[C@H]1C[C@]2(C)[C@@H](C(C)=O)CC[C@H]2[C@@H]2CC[C@H]3C[C@H](O)CC[C@]3(C)[C@H]21 [Example 213]
- Dissolved aminoester [2, 3]: 119 mg
- pH (pH of the salt solutions; [4]): 3.8

SMILES: CCCCN(CC)CC(=O)O[C@H]1C[C@]2(C)[C@@H](C(C)=O)CC[C@H]2[C@@H]2CC[C@H]3C[C@H](O)[C@@H](OCC)C[C@]3(C)[C@H]21 [Example 150]
- Dissolved aminoester [2, 5]: 120 mg
- pH (pH of the salt solutions; [4]): 3.35

SMILES: CCOC1CC2(C)C(CCC3C4CCC(C(C)=O)C4(C)CC(OC(=O)CNC(C)CC(C)C)C32)CC1O (stereo not shown) [Example 166]
- Dissolved aminoester [2, 6]: 104 mg
- pH (pH of the salt solutions; [4]): 3.28

SMILES: C=CCN(CC=C)CC(=O)O[C@H]1C[C@]2(C)[C@@H](C(C)=O)CC[C@H]2[C@@H]2CC[C@H]3C[C@H](O)CC[C@]3(C)[C@H]21 [Example 118]
- Dissolved aminoester [2, 3]: 38 mg
- pH (pH of the salt solutions; [4]): 2.55

SMILES: CCCCNCC(=O)O[C@H]1C[C@]2(C)[C@@H](C(C)=O)CC[C@H]2[C@@H]2CC[C@H]3C[C@H](O)CC[C@]3(C)[C@H]21 [Example 136]
- Dissolved aminoester [2, 7]: 83.5 mg
- pH (pH of the salt solutions; [4]): 3.60

SMILES: CCN(CC)CC(=O)O[C@H]1C[C@]2(C)[C@@H](C(C)=O)CC[C@H]2[C@@H]2CC[C@H]3C[C@H](O)[C@@H](OC)C[C@]3(C)[C@H]21 [Example 124]
- Dissolved aminoester [2, 5]: 75 mg
- pH (pH of the salt solutions; [4]): 3.65

SMILES: CC(=O)[C@H]1CC[C@H]2[C@@H]3CC[C@H]4C[C@H](O)CC[C@]4(C)[C@H]3[C@@H](OC(=O)CN3CC4CCC(CC4)C3)C[C@]12C [Example 160]
- Dissolved aminoester [2, 8]: 80.6 mg
- pH (pH of the salt solutions; [4]): 2.6

SMILES: CC(=O)[C@H]1CC[C@H]2[C@@H]3CC[C@H]4C[C@H](O)CC[C@]4(C)[C@H]3[C@@H](OC(=O)CCN(C)C(C)CC(C)C)C[C@]12C (stereo partly shown) [Example 200]
- Dissolved aminoester [2, 6]: 83 mg
- pH (pH of the salt solutions; [4]): 3.2

SMILES: CCCC(C)N(C)CC(=O)O[C@H]1C[C@]2(C)[C@@H](C(C)=O)CC[C@H]2[C@@H]2CC[C@H]3C[C@H](O)CC[C@]3(C)[C@H]21 (stereo partly shown) [Example 187]
- Dissolved aminoester [2, 5]: 95 mg
- pH (pH of the salt solutions; [4]): 3.63

SMILES: CCCCN(C)CC(=O)O[C@H]1C[C@]2(C)[C@@H](C#N)CC[C@H]2[C@@H]2CC[C@H]3C[C@H](O)CC[C@]3(C)[C@H]21 [Example 205]
- Dissolved aminoester [2, 7]: 97 mg
- pH (pH of the salt solutions; [4]): 3.4

SMILES: CC(=O)[C@H]1CC[C@H]2[C@@H]3CC[C@H]4C[C@H](O)CC[C@]4(C)[C@H]3[C@@H](OC(=O)CN(C(C)C)C(C)C)C[C@]12C [Example 153]
- Dissolved aminoester [2, 6]: 79 mg
- pH (pH of the salt solutions; [4]): 3.02

SMILES: CCCN(CCC)CC(=O)O[C@H]1C[C@]2(C)[C@@H](C(C)=O)CC[C@H]2[C@@H]2CC[C@H]3C[C@H](O)[C@@H](C)C[C@]3(C)[C@H]21 [Example 161]
- Dissolved aminoester [2, 8]: 78 mg
- pH (pH of the salt solutions; [4]): 2.8

SMILES: CCCN(CCC)CC(=O)O[C@H]1C[C@]2(C)[C@@H](C(C)=O)CCC[C@H]2[C@@H]2CC[C@H]3C[C@H](O)[C@@H](OCC)C[C@]3(C)[C@H]21 [Example 226 citrate salt]
- concentration of aqueous solution of the citrate [2]: 9500 µg/mL
- pH (pH of the salt solutions; [9]): 2.85

SMILES: CC(=O)[C@H]1CC[C@H]2[C@@H]3CC[C@H]4C[C@H](O)CC[C@]4(C)[C@H]3[C@@H](OC(=O)CN(C)Cc3ccccc3)C[C@]12C [Example 119]
- Dissolved aminoester [2, 6]: 73 mg
- pH (pH of the salt solutions; [4]): 2.7

SMILES: CCCCCN(C)CC(=O)O[C@H]1C[C@]2(C)[C@@H](C(C)=O)CC[C@H]2[C@@H]2CC[C@H]3C[C@H](O)CC[C@]3(C)[C@H]21 [Example 185]
- Dissolved aminoester [2, 6]: 65.3 mg
- pH (pH of the salt solutions; [4]): 2.86

SMILES: CCCO[C@H]1C[C@@]2(C)[C@@H](CC[C@@H]3[C@@H]2[C@@H](OC(=O)CN2CCC(C)CC2)C[C@]2(C)[C@@H](C(C)=O)CC[C@@H]32)C[C@@H]1O [Example 149]
- Dissolved aminoester [2, 6]: 106 mg
- pH (pH of the salt solutions; [4]): 2.9

SMILES: CCCN(CCC)CC(=O)O[C@H]1C[C@]2(C)[C@@H](C(C)=O)CC[C@H]2[C@@H]2CC[C@H]3C[C@H](O)CC[C@@H]3[C@H]21 [Example 227 citrate salt]
- concentration of aqueous solution of the citrate [2]: 10000 µg/mL
- pH (pH of the salt solutions; [9]): 3.0
